ChEMBL document CHEMBL1201862, “PubChem BioAssay data set” (2004)
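Grown in 96-well plates, cells were treated for 48 hours with each compound at five concentrations. Insufficient inhibition: endpoint recorded as highest concentration tested. GI50 is the concentration that inhibits growth by half.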 Active and inactive are the calls of the source. Cut-off read from the data, not from the text of the source: active = GI50 up to about 1.1 µM and inactive = higher.

How the values were obtained:
Experiment in all cases: NCI anticancer screen, dose series, 48 h
M14 = tested on: M14
MDA-MB-231 = tested on: MDA-MB-231
SN12C = tested on: SN12C
LOX IMVI = tested on: LOX IMVI
NCI/ADR-RES = tested on: NCI/ADR-RES
OVCAR-3 = tested on: OVCAR-3
HL-60 = tested on: HL-60
HCC 2998 = tested on: HCC 2998
EKVX = tested on: EKVX
A498 = tested on: A498
DU-145 = tested on: DU-145
NCI-H522 = tested on: NCI-H522
UACC-62 = tested on: UACC-62
KM12 = tested on: KM12
SF-268 = tested on: SF-268
CCRF-CEM = tested on: CCRF-CEM
NCI-H460 = tested on: NCI-H460
SF-539 = tested on: SF-539
K562 = tested on: K562
A549 = tested on: A549
U-251 = tested on: U-251
OVCAR-5 = tested on: OVCAR-5
HOP-62 = tested on: HOP-62
NCI-H226 = tested on: NCI-H226
MCF7 = tested on: MCF7
SW-620 = tested on: SW-620
SF-295 = tested on: SF-295
SK-MEL-2 = tested on: SK-MEL-2
PC-3 = tested on: PC-3
MOLT-4 = tested on: MOLT-4
CAKI-1 = tested on: CAKI-1
MDA-MB-435 = tested on: MDA-MB-435
HCT-15 = tested on: HCT-15
OVCAR-8 = tested on: OVCAR-8
HCT-116 = tested on: HCT-116
NCI-H23 = tested on: NCI-H23
ACHN = tested on: ACHN
TK-10 = tested on: TK-10
UACC-257 = tested on: UACC-257
OVCAR-4 = tested on: OVCAR-4
SK-MEL-5 = tested on: SK-MEL-5
HOP-92 = tested on: HOP-92
RXF 393 = tested on: RXF 393
SK-MEL-28 = tested on: SK-MEL-28
SR = tested on: SR
SNB-19 = tested on: SNB-19
Hs-578T = tested on: Hs-578T
IGROV-1 = tested on: IGROV-1
786-0 = tested on: 786-0
COLO 205 = tested on: COLO 205
MDA-N = tested on: MDA-N
Malme-3M = tested on: Malme-3M
UO-31 = tested on: UO-31
SK-OV-3 = tested on: SK-OV-3
HT-29 = tested on: HT-29
RPMI-8226 = tested on: RPMI-8226
T47D = tested on: T47D
SNB-75 = tested on: SNB-75

Measured: GI50

O=c1[nH]n(Cc2ccccc2CCl)c2ccc([N+](=O)[O-])cc12
inactive: M14 39.2 µM | MDA-MB-231 38.4 µM | SN12C 52.7 µM | LOX IMVI 55.7 µM | NCI/ADR-RES 29.9 µM | OVCAR-3 48.2 µM | HL-60 26.6 µM | HCC 2998 21.7 µM | EKVX 45.2 µM | A498 62.2 µM | DU-145 59.7 µM | NCI-H522 22.9 µM | UACC-62 30.5 µM | KM12 49.5 µM | SF-268 35.3 µM | CCRF-CEM 28.7 µM | NCI-H460 23.8 µM | SF-539 58.3 µM | K562 42.4 µM | A549 31.2 µM | U-251 42.3 µM | OVCAR-5 > 100 µM | HOP-62 47.6 µM | NCI-H226 93.5 µM | MCF7 29.8 µM | SW-620 49 µM | SF-295 37.8 µM | SK-MEL-2 43.4 µM | PC-3 31.3 µM | MOLT-4 26.6 µM | CAKI-1 25 µM | MDA-MB-435 35.1 µM | OVCAR-8 40.5 µM | HCT-116 41.4 µM | NCI-H23 83 µM | ACHN 55.3 µM | TK-10 54.3 µM | UACC-257 64.4 µM | OVCAR-4 37.1 µM | SK-MEL-5 13.4 µM | HOP-92 34.5 µM | RXF 393 32.9 µM | SK-MEL-28 34.5 µM | SR 33.6 µM | SNB-19 48.9 µM | Hs-578T 85.5 µM | IGROV-1 > 100 µM | 786-0 55.5 µM | COLO 205 26.1 µM | MDA-N 62.1 µM | Malme-3M 83.4 µM | UO-31 88.3 µM | SK-OV-3 27.7 µM | HT-29 34.8 µM | RPMI-8226 32 µM
60.8 µM: HCT-15

C=C1CN=C(Nc2ccc(F)cc2F)S1
inactive: MDA-MB-231 > 100 µM | SN12C > 100 µM | LOX IMVI 18.9 µM | NCI/ADR-RES > 100 µM | HL-60 31.5 µM | HCC 2998 > 100 µM | EKVX > 100 µM | A498 > 100 µM | DU-145 > 100 µM | KM12 > 100 µM | SF-268 > 100 µM | CCRF-CEM 18.3 µM | NCI-H460 > 100 µM | SF-539 > 100 µM | K562 30.5 µM | A549 > 100 µM | U-251 > 100 µM | OVCAR-5 > 100 µM | HOP-62 > 100 µM | MCF7 28 µM | SW-620 > 100 µM | SF-295 > 100 µM | SK-MEL-2 > 100 µM | PC-3 > 100 µM | MOLT-4 31.7 µM | CAKI-1 > 100 µM | OVCAR-8 > 100 µM | HCT-116 > 100 µM | NCI-H23 > 100 µM | ACHN > 100 µM | TK-10 > 100 µM | T47D > 100 µM | UACC-257 > 100 µM | OVCAR-4 > 100 µM | SK-MEL-5 > 100 µM | HOP-92 2.51 µM | SK-MEL-28 > 100 µM | SR 36.8 µM | SNB-19 > 100 µM | Hs-578T > 100 µM | IGROV-1 > 100 µM | 786-0 > 100 µM | SNB-75 32.1 µM | COLO 205 > 100 µM | MDA-N > 100 µM | Malme-3M > 100 µM | UO-31 > 100 µM | SK-OV-3 > 100 µM | HT-29 > 100 µM | RPMI-8226 49.7 µM
> 100 µM: HCT-15
